Test results as given in patent US20260297083A1, “SUBSTITUTED ACETYLENE COMPOUND DERIVATIVES AND THEIR PHARMACEUTICAL USE” (AVELOS THERAPEUTICS INC., priority 2023, published 2026).

Test system: DLD-1 BRCA2(−/−) Cell
Assay: Cell viability assay (Resazurin) in DLD1-BRCA2 cells
Type: cell-based
Details: Homo sapiens, DLD-1, 336 h, 14 days, 1,500 cells/well, final DMSO 1%
Description: DLD1-BRCA2 KG (Horizon Discovery, Cat #HD 105-007) cells and DLD1-parental cells were maintained in culture media (RPMI-1640 including 2 mM L-glutamin and 25 mM sodium bicarbonate, supplemented with 10% FBS), at 37° C. in a humidified atmosphere with 5% CO2. Cells were seeded at the final concentration of 1,500 cells/well (DLD1-BRCA2 KG) and 600 cells/well (DLD1-parental) in a 96-well plate. Four hours later, test compounds were added (the final concentration of DMSO was 1%) to the cells and media were replaced every 3-4 days for 14 days. To measure viability, cells were incubated in culture media supplemented with 0.1 mg/ml of Resazurin (Merck, Cat #R7017) for 4 hours. The fluorescence was measured at Ex/Em=560 nm/590 nm using EnSight multimode plate reader (Perkin Elmer). Data analysis and IC50 calculation was done using GraphPad Prism (Version 10.0.2).

| Structure (SMILES) | IC50 [µM] |
| --- | --- |
| Cc1cc(C(F)(F)F)cc(N2[C@H](C(=O)N(CC#Cc3cc(C)c(F)c(C)n3)c3ccc(F)c(C)c3)CCS2(=O)=O)n1 [Example 90, (S)-N-(4-fluoro-3-methylphenyl)-N-(3-(5-fluoro-4,6-dimethylpyridin-2-yl)prop-2-yn-1-yl)-2-(6-methyl-4-(trifluoromethyl)pyridin-2-yl)isothiazolidine-3-carboxamide 1,1-dioxide] | 1.1 to 5 |
| Cc1cc(C(F)(F)F)cc(N2[C@H](C(=O)N(CC#Cc3cnc(N4CCOCC4)c(C(F)(F)F)n3)c3ccc(F)c(C)c3)CCS2(=O)=O)n1 [Example 46, (S)-N-(4-fluoro-3-methylphenyl)-2-(6-methyl-4-(trifluoromethyl)pyridin-2-yl)-N-(3-(5-morpholino-6-(trifluoromethyl)pyrazin-2-yl)prop-2-yn-1-yl)isothiazolidine-3-carboxamide 1,1-dioxide] | 1.1 to 5 |
| Cc1cc(C(F)(F)F)cc(N2[C@H](C(=O)N(CC#Cc3ccc(N)nn3)c3ccc(F)c(C)c3)CN(C(C)C)S2(=O)=O)n1 [Example 110, (S)-N-(3-(6-aminopyridazin-3-yl)prop-2-yn-1-yl)-N-(4-fluoro-3-methylphenyl)-5-isopropyl-2-(6-methyl-4-(trifluoromethyl)pyridin-2-yl)-1,2,5-thiadiazolidine-3-carboxamide 1,1-dioxide] | 1.1 to 5 |
| Cc1cc(C(F)(F)F)cc(N2[C@H](C(=O)N(CC#Cc3cncc(C(=O)N4CCNCC4)n3)c3ccc(F)c(C)c3)CCS2(=O)=O)n1 [Example 72, (S)-N-(4-fluoro-3-methylphenyl)-2-(6-methyl-4-(trifluoromethyl)pyridin-2-yl)-N-(3-(6-(piperazine-1-carbonyl)pyrazin-2-yl)prop-2-yn-1-yl)isothiazolidine-3-carboxamide 1,1-dioxide] | < 1 |
| Cc1cc(C(F)(F)F)cc(N2C(=O)CC[C@H]2C(=O)N(CC#CCN2CCOCC2)c2ccc(F)c(C)c2F)n1 [Example 14, (S)—N-(2,4-difluoro-3-methylphenyl)-1-(6-methyl-4-(trifluoromethyl)pyridin-2-yl)-N-(4-morpholinobut-2-yn-1-yl)-5-oxopyrrolidine-2-carboxamide] | 1.1 to 5 |
| CC(=O)Nc1ccc(C#CCN(C(=O)[C@@H]2CCS(=O)(=O)N2c2cc(C(F)(F)F)cc(C)n2)c2ccc(F)c(C)c2)nn1 [Example 22, (S)-N-(3-(6-acetamidopyridazin-3-yl)prop-2-yn-1-yl)-N-(4-fluoro-3-methylphenyl)-2-(6-methyl-4-(trifluoromethyl)pyridin-2-yl)isothiazolidine-3-carboxamide 1,1-dioxide] | 1.1 to 5 |
| Cc1cc(C(F)(F)F)cc(N2[C@H](C(=O)N(CC#Cc3ccc(C(N)=O)nn3)c3ccc(F)c(C)c3)CCS2(=O)=O)n1 [Example 29] | < 1 |
| Cc1cc(C(F)(F)F)cc(N2[C@H](C(=O)N(CC#Cc3ccc(C(N)=O)cc3)c3ccc(F)c(C)c3)CCS2(=O)=O)n1 [Example 105, (S)-N-(3-(4-carbamoylphenyl)prop-2-yn-1-yl)-N-(4-fluoro-3-methylphenyl)-2-(6-methyl-4-(trifluoromethyl)pyridin-2-yl)isothiazolidine-3-carboxamide 1,1-dioxide] | 1.1 to 5 |
| Cc1cc(C(F)(F)F)cc(N2[C@H](C(=O)N(CC#Cc3cnc(N4C5CCC4COC5)cn3)c3ccc(F)c(C)c3)CCS2(=O)=O)n1 [Example 49, (3S)-N-(3-(5-(3-oxa-8-azabicyclo[3.2.1]octan-8-yl)pyrazin-2-yl)prop-2-yn-1-yl)-N-(4-fluoro-3-methylphenyl)-2-(6-methyl-4-(trifluoromethyl)pyridin-2-yl)isothiazolidine-3-carboxamide 1,1-dioxide] | < 1 |
| Cc1cc(C(F)(F)F)cc(N2[C@H](C(=O)N(CC#Cc3cnc(N4CC5CCC(C4)O5)cn3)c3ccc(F)c(C)c3)CCS2(=O)=O)n1 [Example 48, (3S)-N-(3-(5-(8-oxa-3-azabicyclo[3.2.1]octan-3-yl)pyrazin-2-yl)prop-2-yn-1-yl)-N-(4-fluoro-3-methylphenyl)-2-(6-methyl-4-(trifluoromethyl)pyridin-2-yl)isothiazolidine-3-carboxamide 1,1-dioxide] | < 1 |
| Cc1cc(C(F)(F)F)cc(N2[C@H](C(=O)N(CC#Cc3cnc(N4CCOCC4)cn3)c3ccc(F)c(C)c3)CCS2(=O)=O)n1 [Example 39, (S)-N-(4-fluoro-3-methylphenyl)-2-(6-methyl-4-(trifluoromethyl)pyridin-2-yl)-N-(3-(5-orpholinopyrazin-2-yl)prop-2-yn-1-yl)isothiazolidine-3-carboxamide 1,1-dioxide] | < 1 |
| Cc1cc(C(F)(F)F)cc(N2[C@@H](C(=O)N(CC#Cc3cnc(N4C[C@H](C)N(C(C)C)[C@@H](C)C4)cn3)c3ccc(F)c(C)c3)CCS2(=O)=O)n1 [Example 54, (R)-N-(4-fluoro-3-methylphenyl)-N-(3-(5-((3S,5S)-4-isopropyl-3,5-dimethylpiperazin-1-yl)pyrazin-2-yl)prop-2-yn-1-yl)-2-(6-methyl-4-(trifluoromethyl)pyridin-2-yl)isothiazolidine-3-carboxamide 1,1-dioxide] | > 5.1 |

Now from value to compound:

| IC50 [µM] | Structure (SMILES) |
| --- | --- |
| < 1 | Cc1cc(C(F)(F)F)cc(N2[C@H](C(=O)N(CC#Cc3ccc(NC(C)C)nn3)c3ccc(F)c(C)c3)CCS2(=O)=O)n1 [Example 20] |
| < 1 | Cc1cc(C(F)(F)F)cc(N2[C@H](C(=O)N(CC#Cc3cnc(C#N)cn3)c3ccc(F)c(C)c3)CCS2(=O)=O)n1 [Example 59, (S)-N-(3-(5-cyanopyrazin-2-yl)prop-2-yn-1-yl)-N-(4-fluoro-3-methylphenyl)-2-(6-methyl-4-(trifluoromethyl)pyridin-2-yl)isothiazolidine-3-carboxamide 1,1-dioxide] |
| < 1 | Cc1cc(C(F)(F)F)cc(N2[C@H](C(=O)N(CC#Cc3ccc(C(N)=O)nc3C)c3ccc(F)c(C)c3)CCS2(=O)=O)n1 [Example 117, (S)-N-(3-(6-carbamoyl-2-methylpyridin-3-yl)prop-2-yn-1-yl)-N-(4-fluoro-3-methylphenyl)-2-(6-methyl-4-(trifluoromethyl)pyridin-2-yl)isothiazolidine-3-carboxamide 1,1-dioxide] |
| < 1 | Cc1cc(C(F)(F)F)cc(N2[C@H](C(=O)N(CC#Cc3cnc(-c4ncon4)cn3)c3ccc(F)c(C)c3)CCS2(=O)=O)n1 [Example 58, (S)-N-(3-(5-(1,2,4-oxadiazol-3-yl)pyrazin-2-yl)prop-2-yn-1-yl)-N-(4-fluoro-3-methylphenyl)-2-(6-methyl-4-(trifluoromethyl)pyridin-2-yl)isothiazolidine-3-carboxamide 1,1-dioxide] |
| < 1 | Cc1cc(C(F)(F)F)cc(N2[C@H](C(=O)N(CC#Cc3ccc(N)nn3)c3ccc(F)c(C)c3)CCS2(=O)=O)n1 [Example 18, (S)-N-(3-(6-aminopyridazin-3-yl)prop-2-yn-1-yl)-N-(4-fluoro-3-methylphenyl)-2-(6-methyl-4-(trifluoromethyl)pyridin-2-yl)isothiazolidine-3-carboxamide 1,1-dioxide] |
| < 1 | Cc1cc(C(F)(F)F)cc(N2[C@H](C(=O)N(CC#Cc3cnc(N4CCOCC4)c(C)n3)c3ccc(F)c(C)c3)CCS2(=O)=O)n1 [Example 45, (S)-N-(4-fluoro-3-methylphenyl)-2-(6-methyl-4-(trifluoromethyl)pyridin-2-yl)-N-(3-(6-methyl-5-morpholinopyrazin-2-yl)prop-2-yn-1-yl)isothiazolidine-3-carboxamide 1,1-dioxide] |
